The subject of assay [1] is ECHCG. Put plainly: In-water applied (paddy) greenhouse weed control, ECHCG. Type of assay: in vivo, Echinochloa crusgalli (L.) Beauv. The procedure:
Weed seeds or nutlets of the desired test plant species were planted in puddled soil (mud) prepared by mixing a shredded, non-sterilized mineral soil (50.5 percent silt, 25.5 percent clay, and 24 percent sand, with a pH of about 7.6 and an organic matter content of about 2.9 percent) and water at a 1:1 volumetric ratio. The prepared mud was dispensed in 365 mL aliquots into 16-ounce (oz.) non-perforated plastic pots with a surface area of 86.59 square centimeters (cm^2) leaving a headspace of 3 centimeters (cm) in each pot. Mud was allowed to dry overnight prior to planting or transplanting. Rice seeds were planted in Sun Gro MetroMix® 306 planting mixture, which typically has a pH of 6.0 to 6.8 and an organic matter content of about 30 percent, in plastic plug trays. Seedlings at the second or third leaf stage of growth were transplanted into 840 mL of mud contained in 32-oz. non-perforated plastic pots with a surface area of 86.59 cm^2 4 days prior to herbicide application. The paddy was created by filling the headspace of the pots with 2.5 to 3 cm of water. When required to ensure good germination and healthy plants, a fungicide treatment and/or other chemical or physical treatment was applied. The plants were grown for 4-22 days in a greenhouse with an approximate 14 h photoperiod which was maintained at about 29′C during the day and 26° C. during the night. Nutrients were added as Osmocote® (19:6:12, N:P:K+minor nutrients) at 2 g per 16-oz. pot and 4 g per 960-mL 32-oz. pot. Water was added on a regular basis to maintain the paddy flood, and supplemental lighting was provided with overhead metal halide 1000-Watt lamps as necessary. The plants were employed for testing when they reached the second or third true leaf stage.
Treatments consisted of the acid or esters of 4-amino-3-chloro-5-fluoro-6-(4-chloro-2-fluoro-3-methoxy-phenyl)pyridine-2-carboxylic acid (compound A) each formulated as an SC and various herbicidal components alone and in combination. Forms of compound A were applied on an acid equivalent basis.
Other herbicidal components were applied on an active ingredient basis and included auxin transport inhibiting (ATI) herbicides chlorflurenol-methyl (technical material), chlorflurenol (technical material), diflufenzopyr (technical material), dilfufenzopyr sodium (technical material), flurenol-methyl (technical material,) and naptalam (technical material).
Treatment requirements for each compound or herbicidal component were calculated based upon the rates being tested, the concentration of active ingredient or acid equivalent in the formulation, an application volume of 2 mL per component per pot, and an application area of 86.59 cm^2 per pot.
For formulated compounds, a measured amount was placed in an individual 100 or 200 mL glass vial and was dissolved in a volume of 1.25% (v/v) Agri-Dex® crop oil concentrate to obtain application solutions.
For technical grade compounds, a weighed amount was placed in an individual 100 to 200 mL glass vial and was dissolved in a volume of acetone to obtain concentrated stock solutions. […] The concentrated stock solutions obtained were diluted with an equivalent volume of an aqueous mixture containing 2.5% (v/v) crop oil concentrate so that the final application solutions contained 1.25% (v/v) crop oil concentrate.
Applications were made by injecting with a pipetter appropriate amounts of the application solutions, individually and sequentially, into the aqueous layer of the paddy. Control plants were treated in the same manner with the solvent blank. Applications were made so that all treated plant material received the same concentrations of acetone and crop oil concentrate.
The treated plants and control plants were placed in a greenhouse as described above and water was added as needed to maintain a paddy flood. […]

Assay [2] has as its system DIGSA. Description: Postemergence foliar-applied greenhouse weed control, DIGSA. Type of assay: in vivo, Digitaria sanguinalis (L.) Scop. From the text:
Seeds or nutlets of the desired test plant species were planted in a soil matrix prepared by mixing a loam or sandy loam soil (e.g., 28.6 percent silt, 18.8 percent clay, and 52.6 percent sand, with a pH of about 5.8 and an organic matter content of about 1.8 percent) and calcareous grit in an 80 to 20 ratio. The soil matrix was contained in plastic pots with a volume of 1 quart and a surface area of 83.6 square centimeters (cm^2). When required to ensure good germination and healthy plants, a fungicide treatment and/or other chemical or physical treatment was applied. The plants were grown for 8-22 days in a greenhouse with an approximate 14 h photoperiod which was maintained at about 29° C. during the day and 26° C. during the night. Nutrients (Peters Excel® 15-5-15 5-Ca 2-Mg and iron chelate) were applied in the irrigation solution as needed and water was added on a regular basis. Supplemental lighting was provided with overhead metal halide 1000-Watt lamps as necessary. The plants were employed for testing when they reached the first through fourth true leaf stage.
Treatments consisted of the acid or esters of 4-amino-3-chloro-5-fluoro-6-(4-chloro-2-fluoro-3-methoxy-phenyl) pyridine-2-carboxylic acid (Compound A), each formulated as an SC (suspension concentrate), and various herbicidal components alone and in combination. Forms of compound A were applied on an acid equivalent basis.
Other herbicidal components were applied on an active ingredient basis and included auxin transport inhibiting (ATI) herbicides chlorflurenol (technical material), chlorflurenol-methyl (technical material), diflufenzopyr (technical material), diflufenzopyr sodium (technical material), flurenol-methyl (technical material) and naptalam (technical material).
Treatment requirements were calculated based upon the rates being tested, the concentration of active ingredient or acid equivalent in the formulation, and a 12 mL application volume at a rate of 187 L/ha.
For treatments comprised of formulated and technical compounds, weighed amounts of the technical materials were placed individually in 25 mL glass vials and dissolved in a volume of 97:3 v/v acetone/DMSO to obtain 12× stock solutions, and measured amounts of the formulated compounds were placed individually in 25 mL glass vials and diluted in a volume of 1.5% (v/v) crop oil concentrate or water to obtain 12× stock solutions. […] Application solutions were prepared by adding an appropriate amount of each stock solution (e.g., 1 mL) and diluted to the appropriate final concentrations with the addition of an appropriate amount of an aqueous mixture of 1.5% (v/v) crop oil concentrate so that the final spray solutions contained 1.25% (v/v) crop oil concentrate. When required, additional water and/or 97:3 v/v acetone/DMSO was added to individual application solutions so that the final acetone and DMSO concentrations of the application solutions being compared were 8.1% and 0.25%, respectively.
All stock solutions and applications solutions were visually inspected for compound compatibility prior to application. Spray solutions were applied to the plant material with an overhead Mandel track sprayer equipped with an 8002E nozzle calibrated to deliver 187 L/ha over an application area of 0.503 m^2 at a spray height of 18 to 20 inches (46 to 50 cm) above average plant canopy height. Control plants were sprayed in the same manner with the solvent blank.
The treated plants and control plants were placed in a greenhouse as described above and watered by sub-irrigation to prevent wash-off of the test compounds. After approximately 3 weeks, the condition of the test plants as compared with that of the untreated plants was determined visually and scored on a scale of 0 to 100 percent where 0 corresponds to no injury or growth inhibition and 100 corresponds to complete kill. […]

The structures appear in SMILES notation.

Take `COc1c(Cl)ccc(-c2nc(C(=O)O)c(Cl)c(N)c2F)c1F` [Compound A Acid, 4-amino-3-chloro-6-(4-chloro-2-fluoro-3-methoxyphenyl)-5-fluoropyridine-2-carboxylic acid]: the “Visual Weed Control (%) Obs” value in assay [1] (20 DAA, 17.5 gae/ha) worked out at 50%; in assay [1] (20 DAA, 35 gae/ha) it was 95%; in assay [1] (22 DAA, 8.75 gae/ha), 0%; in assay [1] (22 DAA, 17.5 gae/ha), 15%; in assay [1] (22 DAA, 35 gae/ha), 15%.

Turning to `COc1c(Cl)ccc(-c2nc(C(=O)OCc3ccccc3)c(Cl)c(N)c2F)c1F` [Compound A Benzyl Ester], the “Visual Weed Control (%) Obs” value amounted to 30% in assay [1] (19 DAA, 8 gae/ha); 20% in assay [1] (19 DAA, 16 gae/ha); 40% in assay [1] (19 DAA, 32 gae/ha); 40% in assay [1] (20 DAA, 4.38 gae/ha); 10% in assay [1] (22 DAA, 4.38 gae/ha); 25% in assay [1] (22 DAA, 8.75 gae/ha). Further, the “Visual Weed Control (%) Obs” value came out at 60% in assay [1] (22 DAA, 17.5 gae/ha); 40% in assay [2] (20 DAA, 4.38 gae/ha); 40% in assay [2] (20 DAA, 8.75 gae/ha); 30% in assay [2] (21 DAA, 17.5 gae/ha).

These data come from patent publication US20140031217A1, “HERBICIDAL COMPOSITIONS COMPRISING 4-AMINO-3-CHLORO-5-FLUORO-6-(4-CHLORO-2-FLUORO-3-METHOXYPHENYL)PYRIDINE-2-CARBOXYLIC ACID OR A DERIVATIVE THEREOF AND AUXIN TRANSPORT INHIBITORS” (DOW AGROSCIENCES LLC, priority 2012, published 2014).
